Drawing on a melting point compilation (Tetko et al.; mined from patent text by program, amines drawn as free bases though some values may be those of a salt), this text covers melting point for 91 compounds.

In the case of `COc1ccccc1OCC1(COc2ccccc2OC)NCCS1`, the melting point lay within 86 to 88 °C.

With `O=C(O)C1Cc2c(ccc3c(=O)c4ccccc4oc23)O1` (stereo unspecified), the melting point was in the range of 283 to 286 °C.

`C=CC[C@H]1CC(C(=O)OCC[Si](C)(C)C)=C[C@@H](OC(C)C)[C@@H]1NC(C)=O` gave a melting point of 64 to 65 °C.

The compound `O=C(c1cccnc1)N1CC2COc3ccc(Cl)cc3C2=N1` (stereo unspecified) had a melting point of 165 to 166 °C.

For the compound `CCc1cnc2c(NC(=O)c3c(Cl)cccc3Cl)cccc2c1CCO`, the melting point lay in the range of 180 to 182 °C.

With `O=[N+]([O-])c1cnc2ccc(Oc3ccc(CNc4ncncc4Cl)cc3)nn12`, the melting point worked out at 185 °C.

The compound `COc1ccccc1-n1c(-c2cc(-c3ccccc3)c(N3CCOCC3)s2)nc2ccccc2c1=O` returned a melting point of 152 to 154 °C.

The compound `O=C(Oc1ccc(Cl)cc1)c1c2ccccc2nc2ccccc12` displayed a melting point of 170 °C.

With `Cn1ncnc1COc1nn2c(-c3ccccc3F)nnc2cc1C(F)(F)F`, the melting point is 123 to 126 °C.

The compound `Cc1c(-c2ccc(F)cc2)c(-c2ccc(S(C)(=O)=O)cc2)c2n1CCC2` came in with a melting point of 191 °C.

In turn, `O=C(O)CCn1nc2ccc(S)nn2c1=O` returned a melting point of 174 to 176 °C.

`CON1C=C2N=Nc3cc(C)cnc3N2C1` registered a melting point of 213 to 214 °C.

Compound `COc1ccc2c(c1)C(=O)C(CC=O)C2` (racemic) registered a melting point of 59 °C.

In the case of `CCOC(=O)C1CC(=O)c2nc(C)c(C)n2C1` (stereo unspecified), the melting point lay within 138 to 140 °C.

`CN(CC(=O)O)S(=O)(=O)c1ccc(-c2ccc(NC(=O)c3cc4ccccc4o3)cc2)cc1` yielded a melting point of 226 to 228 °C.

The compound `CC(=O)c1cc(C(C)(C)C)cc(C(=O)O)c1O` had a melting point of 159 to 161 °C.

In turn, `Nc1nc2cc3[nH]c(-c4ccncc4)nc3cc2[nH]1` showed a melting point above 320 °C.

The compound `CN1Cc2c(c3ccccc3c3ccccc23)C1` had a melting point of 122 to 123 °C.

In the case of `CC(C)(C)c1ccc(O)c(C=O)c1`, the melting point turned out to be 81 °C.

As to `CN1c2ccccc2N(Cc2ccccc2)C(=O)[C@H]2CCC[C@H]21` (relative stereo), the melting point was 123 to 125 °C.

Consider `CC(C)C1(C)NC(c2ccccc2C(F)(F)F)=NC1=O` (stereo unspecified), for which the melting point lay within 109 to 110 °C.

The compound `COc1ccc2cc(C#N)sc2c1` had a melting point of 82 to 83 °C.

For the compound `CCCNC(=O)Nc1ccc2oc([N+](=O)[O-])c(-c3ccccc3)c2c1`, the melting point is 199 to 201 °C.

Consider `N#CC(C(=O)O)=C1Nc2ccccc2O1`, for which the melting point fell in the range of 185 to 187 °C.

In turn, `CCOC(=O)c1c(CN(CC)CC)nc2sc3cnccc3c2c1-c1ccc(OC)c(OC)c1` returned a melting point of 163 to 165 °C.

`CCc1ccc2c(c1)C=Cc1sc(C)nc1C2c1cn(Cc2cccc(C(=O)O)c2)c(=O)[nH]c1=O` (stereo unspecified): the melting point was in the range of 159 to 161 °C.

On to `Cn1cc(C2=C(c3c4n(c5ccccc35)CC(CN)CC4)C(=O)NC2=O)c2ccccc21` (stereo unspecified), for which the melting point lay within 160 to 165 °C.

As to `Fc1cc2c(c(-c3c(Cl)cccc3Cl)c1)OC(CNCC1CC1)C2` (stereo unspecified), the melting point is 130 to 133 °C.

`Cc1cnc2oc(-c3ccccc3)nc2c1` had a melting point of 71 to 73 °C.

Consider `COc1cc(OC)nc(NC(=O)NS(=O)(=O)c2ccccc2C=O)n1`, for which the melting point worked out at 180 °C.

Take `O=c1[nH]c2ccccc2c2ccc3nc(Nc4c(Cl)cccc4Cl)[nH]c3c12`: the melting point is above 300 °C.

On to `CCCc1c(OCCCCOc2cccc(Sc3ccc(C(=O)O)cc3)c2)ccc(C(C)=O)c1O`, for which the melting point lay in the range of 100 to 102 °C.

In the case of `CC(C)c1ccc2c(c1)OCc1ccc(C(=O)O)cc1C2=O`, the melting point fell in the range of 203 to 204 °C.

Compound `O=c1[nH]c(-c2c[nH]c3ccccc23)nc2ccc(N3CCCC3)cc12` came in with a melting point of 298 °C.

`CCCCOCCOc1ccc(-c2ccc(N3CC(C)C(C)C3)c(C=C(C)C(=O)O)c2)cc1` (stereo unspecified) came in with a melting point of 126 to 128 °C.

For `O=C(CCC(=O)N1CCC[C@H]1C(=O)O)c1ccccc1`, the melting point lay in the range of 95 to 97 °C.

As to `O=C(O)c1cccc(-c2ccnc3c(C(=O)c4cccs4)cnn23)c1`, the melting point was in the range of 174 to 177 °C.

For the compound `BrCc1ccc2nc(-c3ccccc3)oc2c1`, the melting point came out at 162 °C.

Regarding `C[C@@H](NC(=O)c1c(N)cc(Cl)cc1Cl)c1ccccc1`, the melting point was 115 to 119 °C.

In the case of `CSc1cccc(SC)c1S(N)(=O)=O`, the melting point was 197 to 199 °C.

`CC#CC(C)(C)NC(=O)C(OCC)Oc1cc(Cl)cc(Cl)c1` (stereo unspecified) came in with a melting point of 76.5 °C.

The compound `O=C(CCC1CCCC1)Nc1ccc2ncn3c(=O)c(C(=O)O)cnc3c2c1` gave a melting point of 279 to 283 °C.

For `CC(=O)Nc1ccc2c(c1)C(c1ccccc1F)=NCc1cnc(C)n1-2`, the melting point was in the range of 326 to 331 °C.

The compound `CCOC(=O)CC(NC(=O)c1ccccc1)C(=O)c1cccs1` (stereo unspecified) gave a melting point of 75 °C.

Turning to `COc1ccc(-c2c(C)cc3c(O)cc(C)nn23)c(Cl)c1`, the melting point was in the range of 196 to 198 °C.

The compound `CS(=O)c1ccc(-n2cnc(-c3ccc(F)cc3)c2-c2ccncc2)cc1` (stereo unspecified) yielded a melting point of 202 to 203 °C.

`CC(C)(C)c1cc(SCc2ccccc2C#N)cc(C(C)(C)C)c1O` yielded a melting point of 79 to 82 °C.

`O=C1CC(c2cccs2)CN1` (stereo unspecified) yielded a melting point of 75 to 76.5 °C.

In turn, `Cc1sc2nc(C=O)c(C)c(=O)n2c1C` displayed a melting point of 170 to 173 °C.

Turning to `Cc1ccc2c(c1)C=Cn1c(nnc1S(C)=O)C2` (stereo unspecified), the melting point lay in the range of 158 to 159 °C.

`COc1c(N)cc(Cl)c(OC)c1[N+](=O)[O-]` gave a melting point of 68 °C.

The compound `OC1(CNc2nc3ccccc3s2)CCN(CC2COc3ccccc3O2)CC1` (stereo unspecified) had a melting point of 176 °C.

For `CCCCCC(=O)OCC(=O)C1C(C)CC2C3=C(C(=O)CC21C)C1(C)C=CC(=O)C=C1C(F)C3` (stereo unspecified), the melting point turned out to be 159 °C.

`CCCCCCCCCCCCC#CC(O)(CCCCC(=O)O)CCCCC(=O)O`: the melting point was 65 to 66 °C.

The compound `CC(=O)c1cc(C(=O)OCc2ccco2)c(C2=NC(C)(C(C)C)C(=O)N2)nc1C` (stereo unspecified) displayed a melting point of 133 to 136 °C.

On to `O=[N+]([O-])c1ccc(CSc2ccc(Cl)cc2)cc1`, for which the melting point was in the range of 66 to 68 °C.

`O=C1Nc2ccccc2N(C(=O)CN2CCOCC2)c2ncncc21`: the melting point lay within 240 to 242 °C.

The compound `Cc1ccc(NC(=S)NCc2ccc3c(c2)CN(C2CCC(=O)NC2=O)C3=O)cc1C(F)(F)F` (stereo unspecified) registered a melting point of 238 to 240 °C.

In turn, `O=C1Oc2ccccc2C1c1ccccc1` (stereo unspecified) registered a melting point of 109 to 111 °C.

On to `COc1c(NS(=O)(=O)c2ccccc2)cccc1C(=O)Nc1ccccc1`, for which the melting point was in the range of 190 to 194 °C.

The compound `CC(C)(NC(=O)CCn1cncc1C=O)c1ccc(Cl)cc1` returned a melting point of 127 to 129 °C.

The compound `c1cc2c3c(c1)C[C@@H]1CCC[C@@H]1N3CCNC2` (relative stereo) registered a melting point of 180 to 190 °C.

`Cc1cc(-c2nc3cccnn3c2-c2ccnc(NC(=O)NCCS(C)(=O)=O)c2)ccc1F` registered a melting point of 204 to 205 °C.

Compound `Cc1nc(N2CCN(CC3CC3)C2=O)sc1C(=O)NCc1ncco1` showed a melting point of 172 to 174 °C.

For the compound `O=C(O)Cc1ccc(C(=O)c2ccccc2)cc1[N+](=O)[O-]`, the melting point was 168 to 170 °C.

`O=C(Nc1ccccc1)OCC1c2ccccc2-c2ccccc21` gave a melting point of 243 to 244 °C.

`C=CCOC(=O)c1c(C)c(OC)cc(O)c1C=O` showed a melting point of 73 to 74 °C.

`CCCCc1nc(Cl)c(C(=O)O)n1Cc1ccc2oc(-c3ccccc3-c3nnn[nH]3)cc2c1` showed a melting point of 209 to 210 °C.

Turning to `CNC(=S)C(OC)c1ccccn1` (stereo unspecified), the melting point fell in the range of 104 to 105 °C.

As for `Cc1ccc(C(=O)/C=C/c2cc(C(C)(C)C)c3oc(=O)c(C(=O)O)cc3c2)cc1`, the melting point lay in the range of 185 to 186 °C.

Regarding `CCN(CC)CCNC(=O)c1cc(I)cc2c(F)ccnc12`, the melting point was in the range of 79 to 81 °C.

The compound `O=C(Oc1cc(F)ccc1Br)c1cc2ccccc2oc1=O` came in with a melting point of 173 to 175 °C.

The compound `CCCS(=O)(=O)Nc1cc(OC[C@@H](O)CNC2CCN(c3ccc(C(=O)OCC)cc3)CC2)ccc1O` showed a melting point of 63 to 65 °C.

`COc1cc(O)nc(C2CC2)n1` had a melting point of 186 °C.

In turn, `CC(C)(C)OC(=O)N1CCN(c2c(F)cc(NC(=O)OCc3ccccc3)cc2F)CC1` registered a melting point of 171 to 172 °C.

`c1ccc(COc2nn3c(-c4cc(-c5cccs5)on4)nnc3c3ccccc23)nc1` displayed a melting point of 213 to 215 °C.

With `CN(C(=O)Nc1ccc(Cl)cc1)c1nnc(Cl)s1`, the melting point turned out to be 250 °C.

As to `C=CCNC(=O)NCC1Cc2ccc(-c3ccc(=O)[nH]n3)cc2C1` (stereo unspecified), the melting point was 208 to 209 °C.

Consider `CCCCNc1cc(-c2nc(N)n[nH]2)ccn1`, for which the melting point fell in the range of 268 to 270 °C.

For the compound `O=C(NCC1(c2ccccc2)CCCCC1)Nc1ccc(Cl)cc1`, the melting point fell in the range of 164 to 166 °C.

Consider `CCCCn1c(C=O)cnc1Cc1c(F)cccc1Cl`, for which the melting point is 88 to 90 °C.

`C#Cc1cc(CC)c(-c2c(O)c(C)nn(C)c2=O)c(CC)c1` gave a melting point of 216 to 217 °C.

On to `COc1cc(OC)c(-c2nncn2CC(C)C)cc1C=CC(=O)c1ccc(S(N)(=O)=O)cc1`, for which the melting point was above 240 °C.

`CC(CN(C(=O)c1ccco1)c1c(C)cccc1C)=NO`: the melting point lay within 155 to 156 °C.

`COC(=O)C1(CCCN2CCN(c3ccccc3)CC2)Sc2ccccc2CCC1O` (stereo unspecified): the melting point was 152 to 154 °C.

`C#CC1(OC(=O)C(C)C)C(COC(=O)c2ccc(Cl)cc2)OC(n2ccc(N)nc2=O)C1OC(=O)C(C)C` (stereo unspecified) had a melting point of 106 to 108 °C.

The compound `CCCc1c(O)cccc1Oc1ccccc1C(=O)OC` registered a melting point of 80 °C.

As for `CCOC(=O)NCc1cccc(C(=O)OC)c1C(=O)OC`, the melting point is 187 to 189 °C.

Consider `CN1C(=O)CCC2(C)c3ccc(Sc4nccc5ccccc45)cc3CCC12` (stereo unspecified), for which the melting point was in the range of 196 to 199 °C.

Consider `O=c1[nH]c2ccc(Cl)cc2n1CCCl`, for which the melting point turned out to be 164 °C.

`CC(=O)c1ccc(O)c(C(C)C)c1` had a melting point of 142 to 144 °C.
